Measurements: publication PMC6104605, “Discovery of new chromen-4-one derivatives as telomerase inhibitors through regulating expression of dyskerin” (Journal of Enzyme Inhibition and Medicinal Chemistry, 2018)

Tests used:
PARP = test: Western blot, PARP; format: cell-based, human; details: SGC-7901, 1, 2 and 4 μM, 48 h
Protocol: (§1) An equivalent volume of 5 × SDS-sample buffer was added to cell lysates and boiled for 10 min. The supernatants were subjected to electrophoresis on SDS-PAGE gels and transferred to PVDF membrane by using a Bio-Rad apparatus. Membranes were blocked for 3 h at room temperature in TBST containing 5% non-fat dried milk and probed overnight at 4 °C with antibodies. CyclinD1 (abcam, ab134175, 1:10000), CDC25A (abcam, ab156574, 1:1000), CDC25C (abcam, ab32051, 1:1000), bcl-2 (abcam, ab32124,1:1000), bax (abcam, ab32503, 1:1000), PARP (abcam, ab191217, 1:1000), γH2AX (abcam, ab81299, 1:5000), dyskerin (abcam, ab156877, 1:1000), NHP2 (abcam, ab180498, 1:1000), NOP10 (abcam, ab133726, 1:1000) antibody was performed with rabbit primary antibody. Otherwise, β-actin (ZSGB-BIO, 1:1000) detection was performed with mouse primary antibody which was served as internal controls. Protein bands of β-actin was visualised using peroxidase-labeled goat anti-mouse and others were visualised using peroxidase-labeled goat anti-rabbit secondary antibody (1:5000 dilution, 1 h, room temperature), and the protein expression signals were detected by the BeyoECL Plus (Beyotime).

[1] = tested on: human normal gastric mucosa cell (GES-1); test: Proliferative inhibition of human normal cell (MTT); format: cell-based; details: GES1; MTT, human normal gastric mucosa cell; read-out: GES-1 IC50
Excerpt: In order to determine the selective cell toxicity of selected compounds. We subsequently conducted a proliferative inhibition assay with human normal gastric mucosa cell (GES-1).

[2] = tested on: human cervical cancer cell Hela; test: MTT anticancer assay, Hela; format: cell-based; details: MTT, 48 h exposure, mean ± SD, read-out: IC50 Hela
Protocol: (§2) The MTT was purchased from Sigma. Cell Cycle Analysis Kit and Apoptosis Analysis Kit were purchased from Bestbio (China). Mitochondrial membrane potential assay kit with JC-1 was purchased from Beyotime (China). All the materials were used as received without further purification unless noted specifically. The cell culture was maintained on DMEM medium (Hyclone, US) supplemented with 10% fetal bovine serum (Sijiqing, China), 100 U/mL penicillin and 100 µg/mL streptomycin in 25-cm^2 culture flasks at 37 °C humidified atmosphere with 5% CO2. Drugs were dissolved in DMSO and filtered through 0.22-µm pore-size filter units before addition to cell line appropriate media. When tumor cells were grown to log phase, diluting to 5 × 10^4 cells mL^−1 with the complete medium, 100 µL of the obtained cell suspension was added to each well of 96-well culture plates. The subsequent incubation was performed at 37 °C, 5% CO2 atmosphere for 48 h before subjecting to anti-proliferation assessment. After 48-h exposure period, 20 µL of PBS containing 5 mg·mL^−1 of MTT was added to each well. After 4 h, the medium was replaced by 150 µL DMSO to dissolve the purple formazan crystals produced. […] The data represented the mean of three experiments in triplicate and were expressed as means ± SD.

dyskerin [3] = test: Western blot, dyskerin; format: cell-based, human; details: SGC-7901, 1, 2 and 4 μM, 48 h
Protocol: as §1

CDC25C = test: Western blot, CDC25C; format: cell-based, human; details: SGC-7901, 1, 2 and 4 μM, 48 h
Protocol: as §1

[4] = tested on: human gastric cancer cells SGC-7901; test: MTT anticancer assay, SGC-7901; format: cell-based
Protocol: as §2

dyskerin [5] = test: Immunofluorescence staining of dyskerin localisation; format: cell-based, human; details: SGC-7901, 2 µM, 48 h
Protocol: SGC-7901 cells were grown on glass coverslips in a 6-well culture plate until approximately 30–40% confluent and then treated with compound 5i for 48 h. The coverslips were fixed in 4% paraformaldehyde for 15 min, followed by 0.5% Triton X-100 for 30 min at room temperature. Fixed and permeabilised cells were blocked with 3% BSA for 30 min at room temperature. Then, the cells were respectively immunolabeled with the appropriate primary and secondary antibodies. FITC-conjugated anti-rabbit IgG (ZSBIO, 1:100) for dyskerin emit green fluorescence. DAPI was used for nuclear staining.

NHP2 = test: Western blot, NHP2; format: cell-based, human; details: SGC-7901, 1, 2 and 4 μM, 48 h
Protocol: as §1

[6] = Octanol water partition coefficient, shake flask; format: physicochemical; details: octanol/PBS pH 7.4, 37 °C
Protocol: Octanole water partition coefficients was measured by the method of shake flask with slight modification. The aqueous phase was replaced by PBS (pH 7.4). First, the phase of octanol and the aqueous were saturated with each other. Then, the mixture containing title compounds was shaken at 37 °C. After 24 h, the mixture was centrifuged at 4000 rpm for 30 min, followed by the measured with ultraviolet spectrophotometer. At last, logP values were calculated.

[7] = tested on: human liver cancer cell SMMC-7721; test: MTT anticancer assay, SMMC-7721; format: cell-based; details: 48 h exposure, mean ± SD
Protocol: The MTT was purchased from Sigma. Cell Cycle Analysis Kit and Apoptosis Analysis Kit were purchased from Bestbio (China). Mitochondrial membrane potential assay kit with JC-1 was purchased from Beyotime (China). All the materials were used as received without further purification unless noted specifically. The cell culture was maintained on DMEM medium (Hyclone, US) supplemented with 10% fetal bovine serum (Sijiqing, China), 100 U/mL penicillin and 100 µg/mL streptomycin in 25-cm^2 culture flasks at 37 °C humidified atmosphere with 5% CO2. Drugs were dissolved in DMSO and filtered through 0.22-µm pore-size filter units before addition to cell line appropriate media. When tumor cells were grown to log phase, diluting to 5 × 10^4 cells mL^−1 with the complete medium, 100 µL of the obtained cell suspension was added to each well of 96-well culture plates. The subsequent incubation was performed at 37 °C, 5% CO2 atmosphere for 48 h before subjecting to anti-proliferation assessment. After 48-h exposure period, 20 µL of PBS containing 5 mg·mL^−1 of MTT was added to each well. After 4 h, the medium was replaced by 150 µL DMSO to dissolve the purple formazan crystals produced. The absorbance at 492 nm of each well was measured on an ELISA plate reader. The data represented the mean of three experiments in triplicate and were expressed as means ± SD. The IC50 value was defined as the concentration at which 50% of the cells could survive. The following human tumor cell lines were used in the assay: human gastric cancer cells SGC-7901, human liver cancer cell SMMC-7721 and HepG2, human cervical cancer cell Hela and human glioma cell U87.

COc1cc(OC)c2c(=O)c(OCCCCN3CCN(C(=O)c4ccncc4)CC3)c(-c3cc(OC)c(OC)c(OC)c3)oc2c1 [Compound 5i, 3-(4-(4-isonicotinoylpiperazin-1-yl)butoxy)-5,7-dimethoxy-2-(3,4,5-trimethoxyphenyl)-4H-chromen-4-one]
PARP (western blot) (PARP): reduced
IC50 [1]: 3710 ± 330 µM
IC50 [2]: 1.02 ± 0.21 µM
protein level of dyskerin (western blot) (dyskerin [3]): significantly reduced
expression of CAC25C (western blot) (CDC25C): significantly decrease
activity against SGC-7901 cells (in words) [4]: good activity
IC50 ([4]; Homo sapiens, SGC-7901, MTT, 48 h exposure, mean ± SD): 1.35 ± 0.17 µM
cytoplasm localisation dyskerin (immunofluorescence) (dyskerin [5]): significantly reduced
nucleus dyskerin (immunofluorescence) (dyskerin [5]): almost all the nucleus dyskerin was disappeared
NHP2 protein level (western blot) (NHP2): no significant changes
logP at 24 h ([6]; octanol/PBS (pH 7.4), pH 7.4, shake flask, read-out: Log p (octanole water partition coefficient)): 3.01
Log p (octanole water partition coefficient) ([6]; shake flask, 24 h): 2.81
IC50 [7]: 1.33 ± 0.14 µM
